Source: US9629816B2, “Small molecule therapeutic compounds targeting thioesterase deficiency disorders and methods of using the same” (The United States of America, as represented by the …, priority 2011, dated 2017)

Assays:
[1] = Solubility in tissue culture media; type: physicochemical
INCL fibroblasts = assay: MTT viability of cultured INCL fibroblasts; type: cell-based, human; conditions: 48 hours of treatment; viability as percent of untreated control (FIG. 4A-C)
Description: Ten out of the twelve HA-derivative compounds listed in Table 1 were tested to determine whether they adversely affected the viability of cultured cells from INCL patients. […] Briefly, following treatment with HA-derivatives INCL cells were incubated with Thiazolyl Blue Tetrazolium […] for 4 hours at 37° C. Formazan crystals thus formed were dissolved in acidified isopropanol and absorption was measured at 570 nm. Viability was expressed as percent of untreated control.
Briefly, normal fibroblasts (GM 00498) were obtained from the Coriell Institute of Medical Research, USA. PPT1-deficient INCL fibroblasts were isolated from skin biopsy samples of INCL patients admitted to an ongoing clinical protocol (#01-CH-0086) approved by the Institutional Review Board (IRB) of the National Institute of Child Health and Human Development (NICHD) at the National Institute of Health (NIH). […] The fibroblasts were cultured in the presence or absence of varying concentrations of each of the HA-derivatives for 48 hours, after which the viability of the cells was determined using the MTT-Cell Viability Assay by T. Mossman, (Rapid colorimetric assay for cellular growth and survival. J. Immunol. Method. 65 (1983) 55-63).

[2] = Cleavage of thioester linkage in [14C]palmitoyl-CoA, release of free [14C]palmitate (TLC, autoradiography); type: biochemical; conditions: varying concentrations; various incubation times; [14C]palmitate production
Description: It has been reported that thioester linkages in s-acylated proteins are labile, and that compounds having nucleophilic properties are able to disrupt such linkages. Thus, the ability of derivatives of hydroxylamine to disrupt thioester linkages in s-acylated proteins was tested. Twelve HA-derivatives, described in Table 1, were screened for their ability to cleave thioester linkage in [^14C]palmitoyl˜CoA (a model thioester substrate of PPT1), mediating the release of free [^14C]palmitic acid, a process depicted in FIG. 2. […] [^14C]-palmitoyl-CoA was incubated for 1 hour with each of the HA derivatives and the reaction mixture was resolved by thin layer chromatography (TLC) followed by autoradiography. The free [^14C]-palmitate bands were visible and quantitated by densitometric analysis of the bands.

SMILES | solubility in tissue culture media [1] | dose- and time-dependence of thioester linkage cleavage in [14C]palmitoyl-CoA [2] | other results
ON(Cc1ccccc1)Cc1ccccc1 [N,N-dibenzylhydroxylamine, N,N-Dibenzylhydroxylamine] | insoluble in tissue culture media | – | –
O=C(c1ccccc1)N(O)c1ccccc1 [N-Benzoyl-N-phenyl hydroxylamine] | – | – | toxicity / viability of INCL cells (MTT) (INCL fibroblasts): all ten compounds except N-Benzoyl-N-phenyl hydroxylamine are non-toxic
CC(ON(C(c1ccccc1)C(C)C)C(C)(C)C)c1ccc(CCl)cc1 (centres unmarked) [N-tert-Butyl-O-[1-[4-(chloromethyl)phenyl]ethyl]-N-(2-methyl-1-phenylpropyl)hydroxylamine] | insoluble in tissue culture media | – | –
ONCc1ccccc1 [benzyl-HA, N-Benzylhydroxylamine] | – | cleaved the thioester linkage in a dose-dependent and time-dependent manner | –
CNO [methyl-HA, N-Methylhydroxylamine] | – | cleaved the thioester linkage in a dose-dependent and time-dependent manner | –
